This is an account of results in ChEMBL document CHEMBL4330132, “5-Keto-3-cyano-2,4-diaminothiophenes as selective maternal embryonic leucine zipper kinase inhibitors” (Bioorg Med Chem Lett, 2019).

Assay [1] has as its target Casein kinase I isoform gamma-1 (Homo sapiens) (UniProt Q9HCP0). The experiment in a line: Binding affinity to wild-type human partial length CSNK1G1 (T15 to S353 residues) expressed in bacterial expression system assessed as residual binding level at 1 uM by Kinomescan method relative to control.
Assay [2] deals with Cyclin-dependent kinase 16 (Homo sapiens) (UniProt Q00536). Nature of the assay: Binding affinity to wild-type human partial length PCTK1 (G160 to A474 residues) expressed in mammalian expression system assessed as residual binding level at 1 uM by Kinomescan method relative to control.
The target of assay [3] is Serine/threonine-protein kinase DCLK3 (Homo sapiens) (UniProt Q9C098). Nature of the assay: Binding affinity to wild-type human partial length DCAMKL3 (E140 to V628 residues) expressed in bacterial expression system assessed as residual binding level at 1 uM by Kinomescan method relative to control.
In assay [4] the target is SRSF protein kinase 3 (Homo sapiens) (UniProt Q9UPE1). The experiment in a line: Binding affinity to wild-type human partial length SRPK3 (P41 to P567 residues) expressed in bacterial expression system assessed as residual binding level at 1 uM by Kinomescan method relative to control.
Assay [5] deals with Protein-tyrosine kinase 6 (Homo sapiens) (UniProt Q13882). The experiment in a line: Binding affinity to wild-type human partial length BRK (L166 to T451 residues) expressed in bacterial expression system assessed as residual binding level at 1 uM by Kinomescan method relative to control.
Sequence of Protein-tyrosine kinase 6 (Homo sapiens) (Q13882 whole entry, looked up, the tested form may be a part): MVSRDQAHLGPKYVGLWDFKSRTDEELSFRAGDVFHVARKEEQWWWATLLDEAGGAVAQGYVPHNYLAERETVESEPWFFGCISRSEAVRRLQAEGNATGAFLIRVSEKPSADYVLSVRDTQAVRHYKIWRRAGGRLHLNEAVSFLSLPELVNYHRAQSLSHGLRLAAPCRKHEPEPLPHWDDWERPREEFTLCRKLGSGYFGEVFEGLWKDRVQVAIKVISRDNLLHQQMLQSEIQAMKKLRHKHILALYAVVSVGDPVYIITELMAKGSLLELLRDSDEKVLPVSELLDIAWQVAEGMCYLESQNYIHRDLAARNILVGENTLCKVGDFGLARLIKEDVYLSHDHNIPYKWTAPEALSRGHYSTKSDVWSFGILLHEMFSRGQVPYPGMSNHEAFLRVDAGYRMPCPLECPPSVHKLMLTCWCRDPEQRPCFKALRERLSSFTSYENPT
Assay [6] deals with Vascular endothelial growth factor receptor 2 (Homo sapiens) (UniProt P35968). Nature of the assay: Binding affinity to wild-type human partial length VEGFR2 (R787 to P1253 residues) expressed in mammalian expression system assessed as residual binding level at 1 uM by Kinomescan method relative to control.
In assay [7] the target is Ribosomal protein S6 kinase alpha-6 (Homo sapiens) (UniProt Q9UK32). The experiment in a line: Binding affinity to wild-type human partial length N-terminal RSK4 kinase domain 1 (M1 to E397 residues) expressed in mammalian expression system assessed as residual binding level at 1 uM by Kinomescan method relative to control.
In assay [8] the target is Inhibitor of nuclear factor kappa-B kinase subunit epsilon (Homo sapiens) (UniProt Q14164). The experiment in a line: Binding affinity to wild-type human full length IKK-epsilon (M1 to V716 residues) expressed in mammalian expression system assessed as residual binding level at 1 uM by Kinomescan method relative to control.
The test system of assay [9] is Mast/stem cell growth factor receptor Kit (Homo sapiens), P10721 [V559D]. The experiment in a line: Binding affinity to human partial length KIT V559D mutant (Y545 to D952 residues) expressed in bacterial expression system assessed as residual binding level at 1 uM by Kinomescan method relative to control.
Sequence of Mast/stem cell growth factor receptor Kit (Homo sapiens), P10721 [V559D] (P10721 whole entry V559D, the tested form may be a part, canonical isoform): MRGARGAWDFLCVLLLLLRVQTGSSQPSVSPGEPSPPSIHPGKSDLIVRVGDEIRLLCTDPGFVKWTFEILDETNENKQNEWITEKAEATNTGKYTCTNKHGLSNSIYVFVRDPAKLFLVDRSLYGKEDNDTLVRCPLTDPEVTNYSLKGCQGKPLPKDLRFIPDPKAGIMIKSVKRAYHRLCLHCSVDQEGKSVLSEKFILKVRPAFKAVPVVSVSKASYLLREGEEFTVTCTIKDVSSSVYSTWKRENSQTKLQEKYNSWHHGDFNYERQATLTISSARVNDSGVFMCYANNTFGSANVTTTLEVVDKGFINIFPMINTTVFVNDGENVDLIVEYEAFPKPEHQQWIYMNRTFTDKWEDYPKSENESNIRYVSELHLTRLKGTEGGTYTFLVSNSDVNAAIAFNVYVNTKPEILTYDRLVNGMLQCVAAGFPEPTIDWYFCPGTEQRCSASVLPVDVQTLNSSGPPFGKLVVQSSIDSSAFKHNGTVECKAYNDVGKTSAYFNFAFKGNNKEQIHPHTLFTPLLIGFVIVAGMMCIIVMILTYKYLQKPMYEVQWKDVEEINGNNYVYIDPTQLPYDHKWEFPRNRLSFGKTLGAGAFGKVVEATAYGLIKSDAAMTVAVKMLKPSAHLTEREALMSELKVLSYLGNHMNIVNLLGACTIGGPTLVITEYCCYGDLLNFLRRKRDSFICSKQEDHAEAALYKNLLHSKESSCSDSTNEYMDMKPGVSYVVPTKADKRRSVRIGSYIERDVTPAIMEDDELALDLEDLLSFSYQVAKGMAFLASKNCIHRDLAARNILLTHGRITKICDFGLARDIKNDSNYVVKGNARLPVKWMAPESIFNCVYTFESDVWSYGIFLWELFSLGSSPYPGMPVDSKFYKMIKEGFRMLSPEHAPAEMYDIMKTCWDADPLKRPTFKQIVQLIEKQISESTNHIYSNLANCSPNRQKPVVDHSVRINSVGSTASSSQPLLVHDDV
Assay [10] concerns Phosphatidylinositol 4,5-bisphosphate 3-kinase catalytic subunit alpha isoform (Homo sapiens), P42336 [E545A]. Nature of the assay: Binding affinity to human partial length PIK3CA E545A mutant (R108 to N1068 residues) expressed in mammalian expression system assessed as residual binding level at 1 uM by Kinomescan method relative to control.
In assay [11] the test system is Receptor-type tyrosine-protein kinase FLT3 (Homo sapiens), P36888 [K663Q]. Nature of the assay: Binding affinity to human partial length FLT3 K663Q mutant (V592 to Y969 residues) expressed in bacterial expression system assessed as residual binding level at 1 uM by Kinomescan method relative to control.
Assay [12] has as its target Muscle, skeletal receptor tyrosine-protein kinase (Homo sapiens) (UniProt O15146). Nature of the assay: Binding affinity to wild-type human partial length MUSK (M553 to V869 residues) expressed in bacterial expression system assessed as residual binding level at 1 uM by Kinomescan method relative to control.
The target in assay [13] is Serine/threonine-protein kinase D2 (Homo sapiens) (UniProt Q9BZL6). Nature of the assay: Binding affinity to wild-type human partial length PRKD2 (A519 to E838 residues) expressed in bacterial expression system assessed as residual binding level at 1 uM by Kinomescan method relative to control.
Sequence of Serine/threonine-protein kinase D2 (Homo sapiens) (Q9BZL6 whole entry, the tested form may be a part): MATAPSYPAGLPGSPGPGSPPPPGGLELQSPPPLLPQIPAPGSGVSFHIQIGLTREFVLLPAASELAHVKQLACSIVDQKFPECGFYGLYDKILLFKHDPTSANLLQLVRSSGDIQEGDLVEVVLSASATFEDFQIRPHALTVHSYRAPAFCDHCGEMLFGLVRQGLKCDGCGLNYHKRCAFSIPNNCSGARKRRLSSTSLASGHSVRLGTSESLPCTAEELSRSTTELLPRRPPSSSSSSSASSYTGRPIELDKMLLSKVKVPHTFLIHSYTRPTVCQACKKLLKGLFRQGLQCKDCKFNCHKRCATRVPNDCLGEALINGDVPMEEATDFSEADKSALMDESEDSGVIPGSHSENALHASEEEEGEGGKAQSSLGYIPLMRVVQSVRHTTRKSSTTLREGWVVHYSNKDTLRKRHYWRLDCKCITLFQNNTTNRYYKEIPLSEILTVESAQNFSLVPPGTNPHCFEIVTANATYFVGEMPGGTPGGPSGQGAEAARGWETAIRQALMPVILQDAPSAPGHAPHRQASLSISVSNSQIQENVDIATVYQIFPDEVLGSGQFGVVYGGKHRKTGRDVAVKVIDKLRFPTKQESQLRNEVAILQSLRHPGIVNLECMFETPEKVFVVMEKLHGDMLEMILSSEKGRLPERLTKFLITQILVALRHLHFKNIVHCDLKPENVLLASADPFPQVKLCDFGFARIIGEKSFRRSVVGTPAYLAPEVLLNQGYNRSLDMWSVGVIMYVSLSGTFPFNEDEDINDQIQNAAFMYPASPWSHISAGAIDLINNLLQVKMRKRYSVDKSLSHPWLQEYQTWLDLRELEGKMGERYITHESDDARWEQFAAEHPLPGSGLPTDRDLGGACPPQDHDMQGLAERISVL
In assay [14] the target is LIM domain kinase 2 (Homo sapiens) (UniProt P53671). Nature of the assay: Binding affinity to wild-type human full length LIMK2 (M1 to P638 residues) expressed in bacterial expression system assessed as residual binding level at 1 uM by Kinomescan method relative to control.
In assay [15] the target is Mitogen-activated protein kinase kinase kinase 11 (Homo sapiens) (UniProt Q16584). Nature of the assay: Binding affinity to wild-type human partial length MLK3 (I77 to W399 residues) expressed in bacterial expression system assessed as residual binding level at 1 uM by Kinomescan method relative to control.
The target of assay [16] is Serine/threonine-protein kinase 10 (Homo sapiens) (UniProt O94804). Nature of the assay: Binding affinity to wild-type human partial length LOK (E16 to V314 residues) expressed in bacterial expression system assessed as residual binding level at 1 uM by Kinomescan method relative to control.
For assay [17], the target named is Serine/threonine-protein kinase mTOR (Homo sapiens) (UniProt P42345). The experiment in a line: Binding affinity to wild-type human partial length MTOR (L1382 to W2549 residues) expressed in mammalian expression system assessed as residual binding level at 1 uM by Kinomescan method relative to control.
In assay [18] the target is Serine/threonine-protein kinase RIO3 (Homo sapiens) (UniProt O14730). The experiment in a line: Binding affinity to wild-type human full length RIOK3 (M1 to E519 residues) expressed in bacterial expression system assessed as residual binding level at 1 uM by Kinomescan method relative to control.
Assay [19] has as its target Serine/threonine-protein kinase RIO1 (Homo sapiens) (UniProt Q9BRS2). The experiment in a line: Binding affinity to wild-type human full length RIOK1 (M1 to K568 residues) expressed in bacterial expression system assessed as residual binding level at 1 uM by Kinomescan method relative to control.
The target in assay [20] is Serine/threonine-protein kinase 32C (Homo sapiens) (UniProt Q86UX6). The experiment in a line: Binding affinity to wild-type human partial length YANK3 (M68 to G486 residues) expressed in bacterial expression system assessed as residual binding level at 1 uM by Kinomescan method relative to control.
Assay [21] deals with Calcium-dependent protein kinase 1 (Plasmodium falciparum) (UniProt P62344). Nature of the assay: Binding affinity to wild-type Plasmodium falciparum full length CDPK1 (M1 to S524 residues) expressed in mammalian expression system assessed as residual binding level at 1 uM by Kinomescan method relative to control.
In assay [22] the target is Inhibitor of nuclear factor kappa-B kinase subunit beta (Homo sapiens) (UniProt O14920). The experiment in a line: Binding affinity to wild-type human full length IKK-beta (M1 to S756 residues) expressed in mammalian expression system assessed as residual binding level at 1 uM by Kinomescan method relative to control.
Sequence of Inhibitor of nuclear factor kappa-B kinase subunit beta (Homo sapiens) (O14920 whole entry, the tested form may be a part): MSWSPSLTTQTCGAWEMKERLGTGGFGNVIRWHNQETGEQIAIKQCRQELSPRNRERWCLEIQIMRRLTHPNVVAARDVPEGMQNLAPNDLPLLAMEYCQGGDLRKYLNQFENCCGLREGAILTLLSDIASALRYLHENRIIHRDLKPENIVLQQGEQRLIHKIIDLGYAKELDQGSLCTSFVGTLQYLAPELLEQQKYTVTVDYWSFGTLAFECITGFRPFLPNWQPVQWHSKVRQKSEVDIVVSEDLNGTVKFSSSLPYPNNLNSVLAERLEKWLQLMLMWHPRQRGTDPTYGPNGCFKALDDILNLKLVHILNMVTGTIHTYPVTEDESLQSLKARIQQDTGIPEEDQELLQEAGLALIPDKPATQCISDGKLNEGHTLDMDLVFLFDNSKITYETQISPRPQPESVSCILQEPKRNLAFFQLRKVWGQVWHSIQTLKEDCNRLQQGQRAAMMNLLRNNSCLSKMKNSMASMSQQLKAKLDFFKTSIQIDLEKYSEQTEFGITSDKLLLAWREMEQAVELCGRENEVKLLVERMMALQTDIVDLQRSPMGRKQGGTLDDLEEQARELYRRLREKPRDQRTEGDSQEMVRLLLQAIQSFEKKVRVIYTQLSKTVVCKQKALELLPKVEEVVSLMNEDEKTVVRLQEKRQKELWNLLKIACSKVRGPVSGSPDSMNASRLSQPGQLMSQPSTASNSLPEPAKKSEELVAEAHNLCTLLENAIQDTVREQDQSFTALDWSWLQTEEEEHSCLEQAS
Assay [23] addresses Serine/threonine-protein kinase DCLK2 (Homo sapiens) (UniProt Q8N568). The experiment in a line: Binding affinity to wild-type human partial length DCAMKL2 (K273 to V664 residues) expressed in bacterial expression system assessed as residual binding level at 1 uM by Kinomescan method relative to control.
Assay [24] addresses Dual specificity mitogen-activated protein kinase kinase 2 (Homo sapiens) (UniProt P36507). The experiment in a line: Binding affinity to wild-type human full length MEK2 (M1 to V400 residues) expressed in mammalian expression system assessed as residual binding level at 1 uM by Kinomescan method relative to control.

Sequence of Serine/threonine-protein kinase DCLK2 (Homo sapiens) (Q8N568 whole entry, the tested form may be a part): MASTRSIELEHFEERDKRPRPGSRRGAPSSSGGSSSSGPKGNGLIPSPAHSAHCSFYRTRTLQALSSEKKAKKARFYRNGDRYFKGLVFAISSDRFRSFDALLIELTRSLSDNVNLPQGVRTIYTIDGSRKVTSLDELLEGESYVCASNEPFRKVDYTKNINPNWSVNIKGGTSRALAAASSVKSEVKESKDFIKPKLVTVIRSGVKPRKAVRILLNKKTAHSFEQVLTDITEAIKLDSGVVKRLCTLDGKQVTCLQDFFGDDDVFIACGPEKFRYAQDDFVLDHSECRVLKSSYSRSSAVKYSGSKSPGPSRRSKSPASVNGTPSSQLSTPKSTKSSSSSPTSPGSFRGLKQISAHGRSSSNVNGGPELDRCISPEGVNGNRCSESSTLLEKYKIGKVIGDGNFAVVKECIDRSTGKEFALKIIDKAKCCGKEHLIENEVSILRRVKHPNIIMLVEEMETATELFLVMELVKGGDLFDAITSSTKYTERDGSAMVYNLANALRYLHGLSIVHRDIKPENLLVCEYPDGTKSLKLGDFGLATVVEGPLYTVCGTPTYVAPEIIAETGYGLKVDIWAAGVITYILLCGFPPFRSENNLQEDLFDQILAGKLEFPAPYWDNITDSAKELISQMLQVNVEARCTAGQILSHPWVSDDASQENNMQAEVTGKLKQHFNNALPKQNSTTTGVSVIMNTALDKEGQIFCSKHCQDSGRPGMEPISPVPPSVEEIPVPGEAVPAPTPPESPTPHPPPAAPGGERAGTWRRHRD
Sequence of Muscle, skeletal receptor tyrosine-protein kinase (Homo sapiens) (O15146 whole entry, the tested form may be a part): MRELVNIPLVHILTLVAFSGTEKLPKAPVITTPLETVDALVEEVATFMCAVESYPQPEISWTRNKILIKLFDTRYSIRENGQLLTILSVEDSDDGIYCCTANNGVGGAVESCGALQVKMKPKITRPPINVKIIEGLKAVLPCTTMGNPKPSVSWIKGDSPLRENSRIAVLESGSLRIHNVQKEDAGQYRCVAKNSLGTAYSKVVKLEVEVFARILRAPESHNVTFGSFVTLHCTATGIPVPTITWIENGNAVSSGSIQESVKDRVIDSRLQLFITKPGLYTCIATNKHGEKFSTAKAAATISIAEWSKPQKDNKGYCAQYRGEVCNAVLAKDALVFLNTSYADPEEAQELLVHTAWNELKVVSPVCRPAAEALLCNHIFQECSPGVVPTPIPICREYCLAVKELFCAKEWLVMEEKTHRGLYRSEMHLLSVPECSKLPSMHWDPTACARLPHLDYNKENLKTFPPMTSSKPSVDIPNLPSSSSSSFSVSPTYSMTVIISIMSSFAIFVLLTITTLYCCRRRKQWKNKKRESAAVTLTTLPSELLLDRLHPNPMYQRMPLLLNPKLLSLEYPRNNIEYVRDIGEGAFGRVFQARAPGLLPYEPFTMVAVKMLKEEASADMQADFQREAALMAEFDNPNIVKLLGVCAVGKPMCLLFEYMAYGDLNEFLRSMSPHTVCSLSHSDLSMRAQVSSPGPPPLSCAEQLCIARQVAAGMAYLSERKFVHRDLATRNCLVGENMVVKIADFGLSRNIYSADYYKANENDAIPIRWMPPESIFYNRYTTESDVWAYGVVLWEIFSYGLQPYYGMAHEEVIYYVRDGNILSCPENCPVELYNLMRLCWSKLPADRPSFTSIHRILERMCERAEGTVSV

On to `CC(C)Nc1sc(C(=O)c2ccc(Cl)s2)c(N)c1C#N`, for which the Activity in assay [1] is 95%; in [2], 100%; in assay [3], 100%; in [4], 96%; in [5], 83%; in [6] it was 93%. In addition, the Activity was 81% in assay [7]; 100% in assay [8]; 59% in assay [9]; 100% in assay [10]; 96% in assay [11]; 76% in [12]. The Activity in [13] is 100%; in [14], 100%; in assay [15], 100%; in [16], 82%; in assay [17], 100%; in assay [18], 38%. Besides, the Activity in assay [19] worked out at 74%; in [20], 82%; in [21] it was 67%; in assay [22], 100%; in assay [23] it was 100%; in [24], 100%.
